Assay [1] has as its system histone H3 phosphorylation on Ser10. As to the kind of experiment: Histone H3 (Ser10) phosphorylation in lung cancer cells (Western blot). Type of assay: cell-based. Particulars: dose- and time-dependent. The text has this:
Proteins are resolved by SDS-PAGE and transferred onto polyvinylidene difluoride membranes (Millipore, Mass.), which are blocked with nonfat milk and hybridized with specific primary antibodies. The protein bands are visualized using an enhanced chemiluminescence reagent (GE Healthcare, Pittsburgh, Pa.) after hybridization with a horseradish peroxidase-conjugated secondary antibody.
Phosphorylation of a highly conserved serine residue (Ser10) in histone H3 is thought to be crucial for entry into mitosis.

The test system of assay [2] is A549 cells. As to the kind of experiment: Polyploidy induction (immunofluorescence microscopy). Type of assay: cell-based, human. The note with it: A549, 1 μM, 48 h. The protocol: A549 cells are seeded in four-chamber slides and cultured overnight. The cells are then treated with DMSO or Compound 1 (1 μM) for 48 h at 37° C. After treatment, the cells are washed with PBS and fixed with methanol for 12 hours, followed by blocking with 3% PBS for 1 hour. The cells are then incubated with α-tubulin antibodies (1:100) overnight and DNA is stained with 4′-6-diamidino-2-phenylindole (DAPI, Pierce) for 30 minutes at room temperature. The cells are evaluated by fluorescent microscopy.
(§1) Aurora B inhibition leads to failure in cytokinesis and abnormal exit from mitosis, which could result in polyploidy cells, cell cycle arrest, and ultimately apoptosis. The ability to induce polyploidy cells was further examined in A549 cells treated or not treated with Compound 1. […] In addition, Compound 1 treatment for 48 hours caused an increase in the number of A549 and H520 cells occupying the G2/M phase. Moreover, exposure of these cells to Compound 1 for 72 hours induced apoptosis as measured by Annexin V/PI staining. For example, exposure to 5 μM Compound 1 induced 48% or 82% apoptosis in A549 cells and H520 cells, compared to 8% or 38% in untreated control cells, respectively.

Assay [3] has as its system A549 cells. As to the kind of experiment: Apoptosis (Annexin V/PI staining). Type of assay: cell-based, human. Particulars: A549, 5 μM, 72 hours. The protocol: as §1, with “Cells are plated in 60-mm plates and treated or not treated with Compound 1 for the indicated time. At each time point, cells are fixed in 70% ethanol and stored at −20° C. for 24 h. After staining, the cell cycle distribution or apoptosis is determined using a BD FACSCalibur Flow Cytometer (BD Biosciences, San Jose, Calif.). Aurora” for “Aurora”

For assay [4], the system named is H520 cells. As to the kind of experiment: Apoptosis (Annexin V/PI staining). Type of assay: cell-based, human. The note with it: H520, 5 μM, 72 hours. The protocol:
as §1, with “Cells are plated in 60-mm plates and treated or not treated with Compound 1 for the indicated time. At each time point, cells are fixed in 70% ethanol and stored at −20° C. for 24 h. After staining, the cell cycle distribution or apoptosis is determined using a BD FACSCalibur Flow Cytometer (BD Biosciences, San Jose, Calif.). Aurora” for “Aurora”

In assay [5] the target is T1, AMPK-alpha2 (Homo sapiens, UniProt P54646).
T1 construct: purchased Millipore
In words: Kinase profile assay (Millipore). Type of assay: biochemical. The note with it: read-out: kinase activity compared with the control. The procedure: (§2) A kinase profile assay was performed by Millipore, to examine other potential targets of Compound 1. Only Akt2 activity was suppressed more than 50% after 5 μM compound 1 treatment, compared with the control (Table 2). In addition, the kinase activity of Aurora A was decreased less than 25% at 5 μM Compound 1.

For assay [6], the target named is T2, Abl (Homo sapiens, UniProt P00519).
T2 construct: purchased Millipore
In words: Kinase profile assay (Millipore). Particulars: read-out: kinase activity compared with the control. Type of assay: biochemical. The procedure:
as §2

The target of assay [7] is T3, Aurora A (Homo sapiens, UniProt O14965).
T3 construct: purchased Millipore
T3 sequence (O14965 1-403): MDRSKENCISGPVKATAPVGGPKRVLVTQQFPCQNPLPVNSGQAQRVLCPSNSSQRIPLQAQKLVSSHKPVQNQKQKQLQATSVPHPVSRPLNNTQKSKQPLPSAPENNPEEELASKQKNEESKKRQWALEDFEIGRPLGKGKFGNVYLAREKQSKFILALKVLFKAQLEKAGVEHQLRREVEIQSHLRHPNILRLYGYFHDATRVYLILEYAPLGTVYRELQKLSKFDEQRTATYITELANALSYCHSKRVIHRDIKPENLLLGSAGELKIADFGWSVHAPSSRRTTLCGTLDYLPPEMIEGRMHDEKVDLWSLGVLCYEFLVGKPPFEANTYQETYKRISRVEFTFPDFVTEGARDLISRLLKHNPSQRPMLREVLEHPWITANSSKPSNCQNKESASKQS
As to the kind of experiment: Kinase profile assay (Millipore). Type of assay: biochemical. The procedure: as §2

For assay [8], the target named is T4, CHK2 (Homo sapiens, UniProt O96017).
T4 construct: purchased Millipore
As to the kind of experiment: Kinase profile assay (Millipore). Type of assay: biochemical. Particulars: read-out: kinase activity compared with the control. The protocol: as §2

Assay [9] has as its target T5, FAK (Homo sapiens, UniProt Q05397).
T5 construct: purchased Millipore
In words: Kinase profile assay (Millipore). Type of assay: biochemical. The note with it: read-out: kinase activity compared with the control. The protocol: as §2

Assay [10] has as its target T6, GSK3 alpha (Homo sapiens, UniProt P49840).
T6 construct: purchased Millipore
As to the kind of experiment: Kinase profile assay (Millipore). Type of assay: biochemical. The note with it: read-out: kinase activity compared with the control. The protocol: as §2

Assay [11] deals with T7, GSK3 beta (Homo sapiens, UniProt P49841).
T7 construct: purchased Millipore
As to the kind of experiment: Kinase profile assay (Millipore). Type of assay: biochemical. The note with it: read-out: kinase activity compared with the control. The protocol: as §2

Assay [12] deals with T8, IGF-1R (Homo sapiens, UniProt P08069).
T8 construct: purchased Millipore
As to the kind of experiment: Kinase profile assay (Millipore). Type of assay: biochemical. The note with it: read-out: kinase activity compared with the control. The procedure: as §2

Assay [13] deals with T9, IKK beta (Homo sapiens, UniProt O14920).
T9 construct: purchased Millipore
In words: Kinase profile assay (Millipore). Type of assay: biochemical. The note with it: read-out: kinase activity compared with the control. The procedure: as §2

In assay [14] the target is T10, LKB1 (Homo sapiens, UniProt Q15831).
T10 construct: purchased Millipore
T10 sequence (Q15831 whole entry, species assumed): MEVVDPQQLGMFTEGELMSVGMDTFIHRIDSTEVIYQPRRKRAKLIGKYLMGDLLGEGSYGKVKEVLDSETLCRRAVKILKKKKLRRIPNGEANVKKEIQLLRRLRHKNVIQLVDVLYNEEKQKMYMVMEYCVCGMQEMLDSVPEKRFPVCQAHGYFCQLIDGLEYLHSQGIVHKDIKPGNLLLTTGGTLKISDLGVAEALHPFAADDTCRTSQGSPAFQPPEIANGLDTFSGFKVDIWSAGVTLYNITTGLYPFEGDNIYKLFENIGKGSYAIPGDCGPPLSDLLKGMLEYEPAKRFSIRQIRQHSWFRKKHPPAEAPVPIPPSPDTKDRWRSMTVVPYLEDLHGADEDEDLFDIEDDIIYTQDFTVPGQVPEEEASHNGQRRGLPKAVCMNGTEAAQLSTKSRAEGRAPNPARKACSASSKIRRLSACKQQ
T10 sequence (Q7RTN6 whole entry partner, species assumed): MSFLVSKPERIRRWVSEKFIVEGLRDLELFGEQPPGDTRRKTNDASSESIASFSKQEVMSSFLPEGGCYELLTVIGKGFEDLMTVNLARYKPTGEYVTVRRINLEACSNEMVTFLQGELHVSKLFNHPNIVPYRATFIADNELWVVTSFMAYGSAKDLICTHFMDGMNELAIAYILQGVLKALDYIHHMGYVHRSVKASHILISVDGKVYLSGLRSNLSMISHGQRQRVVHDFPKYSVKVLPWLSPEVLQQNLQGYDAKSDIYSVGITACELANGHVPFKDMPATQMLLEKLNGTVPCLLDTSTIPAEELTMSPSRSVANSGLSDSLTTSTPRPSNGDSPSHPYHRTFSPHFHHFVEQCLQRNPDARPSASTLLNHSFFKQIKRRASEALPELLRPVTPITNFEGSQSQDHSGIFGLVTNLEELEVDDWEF
T10 sequence (Q9Y376 whole entry partner, species assumed): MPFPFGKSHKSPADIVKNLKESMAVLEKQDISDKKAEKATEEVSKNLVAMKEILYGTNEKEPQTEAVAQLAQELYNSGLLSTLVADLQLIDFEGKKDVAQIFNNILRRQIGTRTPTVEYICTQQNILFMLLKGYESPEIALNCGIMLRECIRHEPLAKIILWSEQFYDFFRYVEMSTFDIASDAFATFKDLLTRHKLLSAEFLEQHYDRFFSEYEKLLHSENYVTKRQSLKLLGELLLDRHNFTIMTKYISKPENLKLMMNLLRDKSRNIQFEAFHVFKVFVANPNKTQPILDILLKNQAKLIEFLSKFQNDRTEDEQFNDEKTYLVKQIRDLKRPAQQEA
In words: Kinase profile assay (Millipore). Type of assay: biochemical. The note with it: read-out: kinase activity compared with the control. The protocol:
as §2

The target of assay [15] is T11, MKK6 (Homo sapiens, UniProt P52564).
T11 construct: purchased Millipore
As to the kind of experiment: Kinase profile assay (Millipore). Type of assay: biochemical. Particulars: read-out: kinase activity compared with the control. The protocol:
as §2

Assay [16] concerns the target T12, MSK1 (Homo sapiens, UniProt O75582).
T12 construct: purchased Millipore
As to the kind of experiment: Kinase profile assay (Millipore). Type of assay: biochemical. The note with it: read-out: kinase activity compared with the control. The procedure:
as §2

For assay [17], the target named is T13, PDK1 (Homo sapiens, UniProt O15530).
T13 construct: purchased Millipore
T13 sequence (O15530 whole entry): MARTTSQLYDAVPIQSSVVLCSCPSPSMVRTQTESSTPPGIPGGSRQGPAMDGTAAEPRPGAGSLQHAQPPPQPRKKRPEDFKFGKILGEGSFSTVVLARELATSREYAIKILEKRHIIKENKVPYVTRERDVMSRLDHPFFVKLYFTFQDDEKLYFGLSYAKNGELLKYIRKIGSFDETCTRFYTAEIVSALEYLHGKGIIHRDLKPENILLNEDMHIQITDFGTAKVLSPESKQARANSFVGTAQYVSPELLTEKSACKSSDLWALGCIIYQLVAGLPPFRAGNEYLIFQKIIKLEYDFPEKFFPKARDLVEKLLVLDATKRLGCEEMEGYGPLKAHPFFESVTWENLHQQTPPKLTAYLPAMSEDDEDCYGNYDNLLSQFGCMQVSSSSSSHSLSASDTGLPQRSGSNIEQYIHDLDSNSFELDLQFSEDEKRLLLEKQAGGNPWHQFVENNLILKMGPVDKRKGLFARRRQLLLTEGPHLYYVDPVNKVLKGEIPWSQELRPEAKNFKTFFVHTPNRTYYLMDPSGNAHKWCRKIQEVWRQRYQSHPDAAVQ
As to the kind of experiment: Kinase profile assay (Millipore). Type of assay: biochemical. The note with it: read-out: kinase activity compared with the control. The protocol: as §2

Assay [18] has as its target PI3-K alpha (Homo sapiens, UniProt P42336). In words: Kinase profile assay (Millipore). Type of assay: biochemical. The note with it: read-out: kinase activity compared with the control. The procedure:
as §2

The target of assay [19] is PI3-K delta (Homo sapiens, UniProt O00329). In words: Kinase profile assay (Millipore). Type of assay: biochemical. The note with it: read-out: kinase activity compared with the control. The procedure: as §2
The target of assay [20] is T14, mTOR/FKBP12 (Homo sapiens, UniProt P42345).
T14 construct: purchased Millipore
T14 sequence (P42345 1362-2549 limits assumed, species assumed): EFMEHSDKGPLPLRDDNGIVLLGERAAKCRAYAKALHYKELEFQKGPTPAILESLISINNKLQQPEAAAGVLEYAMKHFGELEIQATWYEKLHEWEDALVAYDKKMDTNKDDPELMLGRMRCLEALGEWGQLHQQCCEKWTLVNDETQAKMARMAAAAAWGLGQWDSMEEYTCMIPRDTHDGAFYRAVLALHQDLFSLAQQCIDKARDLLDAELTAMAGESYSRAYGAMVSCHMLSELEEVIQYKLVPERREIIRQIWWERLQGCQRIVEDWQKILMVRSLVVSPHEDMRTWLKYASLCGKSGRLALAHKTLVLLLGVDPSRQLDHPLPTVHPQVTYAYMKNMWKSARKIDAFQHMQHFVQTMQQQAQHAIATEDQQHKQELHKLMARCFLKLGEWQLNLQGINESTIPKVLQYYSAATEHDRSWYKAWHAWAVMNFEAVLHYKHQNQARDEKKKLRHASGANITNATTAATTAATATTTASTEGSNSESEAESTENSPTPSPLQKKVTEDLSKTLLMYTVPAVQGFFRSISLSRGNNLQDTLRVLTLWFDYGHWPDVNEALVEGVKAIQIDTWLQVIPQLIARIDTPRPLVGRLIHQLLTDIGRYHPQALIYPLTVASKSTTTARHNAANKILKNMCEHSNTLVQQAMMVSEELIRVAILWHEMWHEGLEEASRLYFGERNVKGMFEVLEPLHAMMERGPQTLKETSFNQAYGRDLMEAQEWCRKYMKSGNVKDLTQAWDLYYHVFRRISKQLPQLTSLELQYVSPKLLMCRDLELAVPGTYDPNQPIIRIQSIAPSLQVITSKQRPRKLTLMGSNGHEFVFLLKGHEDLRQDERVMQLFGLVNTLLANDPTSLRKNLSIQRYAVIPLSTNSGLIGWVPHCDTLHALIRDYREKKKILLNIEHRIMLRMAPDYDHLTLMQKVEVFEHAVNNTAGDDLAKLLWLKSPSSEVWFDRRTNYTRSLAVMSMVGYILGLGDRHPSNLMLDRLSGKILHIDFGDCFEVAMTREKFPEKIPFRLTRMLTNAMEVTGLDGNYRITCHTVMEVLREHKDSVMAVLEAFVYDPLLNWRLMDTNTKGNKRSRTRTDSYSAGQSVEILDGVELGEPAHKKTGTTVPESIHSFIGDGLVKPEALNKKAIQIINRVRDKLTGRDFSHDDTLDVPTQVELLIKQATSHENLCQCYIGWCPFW
As to the kind of experiment: Kinase profile assay (Millipore). Type of assay: biochemical. The note with it: read-out: kinase activity compared with the control. The procedure: as §2

Assay [21] addresses T15, p70S6K (Homo sapiens, UniProt P23443).
T15 construct: purchased Millipore
As to the kind of experiment: Kinase profile assay (Millipore). Type of assay: biochemical. The note with it: read-out: kinase activity compared with the control. The procedure: as §2

We go through 1 compound from patent US9796671B2, “Aurora kinase inhibitors” (REGENTS OF THE UNIVERSITY OF MINNESOTA, priority 2012, dated 2017).

The structures appear in SMILES notation.

PI3-K alpha, sequence (P42336 whole entry, species assumed): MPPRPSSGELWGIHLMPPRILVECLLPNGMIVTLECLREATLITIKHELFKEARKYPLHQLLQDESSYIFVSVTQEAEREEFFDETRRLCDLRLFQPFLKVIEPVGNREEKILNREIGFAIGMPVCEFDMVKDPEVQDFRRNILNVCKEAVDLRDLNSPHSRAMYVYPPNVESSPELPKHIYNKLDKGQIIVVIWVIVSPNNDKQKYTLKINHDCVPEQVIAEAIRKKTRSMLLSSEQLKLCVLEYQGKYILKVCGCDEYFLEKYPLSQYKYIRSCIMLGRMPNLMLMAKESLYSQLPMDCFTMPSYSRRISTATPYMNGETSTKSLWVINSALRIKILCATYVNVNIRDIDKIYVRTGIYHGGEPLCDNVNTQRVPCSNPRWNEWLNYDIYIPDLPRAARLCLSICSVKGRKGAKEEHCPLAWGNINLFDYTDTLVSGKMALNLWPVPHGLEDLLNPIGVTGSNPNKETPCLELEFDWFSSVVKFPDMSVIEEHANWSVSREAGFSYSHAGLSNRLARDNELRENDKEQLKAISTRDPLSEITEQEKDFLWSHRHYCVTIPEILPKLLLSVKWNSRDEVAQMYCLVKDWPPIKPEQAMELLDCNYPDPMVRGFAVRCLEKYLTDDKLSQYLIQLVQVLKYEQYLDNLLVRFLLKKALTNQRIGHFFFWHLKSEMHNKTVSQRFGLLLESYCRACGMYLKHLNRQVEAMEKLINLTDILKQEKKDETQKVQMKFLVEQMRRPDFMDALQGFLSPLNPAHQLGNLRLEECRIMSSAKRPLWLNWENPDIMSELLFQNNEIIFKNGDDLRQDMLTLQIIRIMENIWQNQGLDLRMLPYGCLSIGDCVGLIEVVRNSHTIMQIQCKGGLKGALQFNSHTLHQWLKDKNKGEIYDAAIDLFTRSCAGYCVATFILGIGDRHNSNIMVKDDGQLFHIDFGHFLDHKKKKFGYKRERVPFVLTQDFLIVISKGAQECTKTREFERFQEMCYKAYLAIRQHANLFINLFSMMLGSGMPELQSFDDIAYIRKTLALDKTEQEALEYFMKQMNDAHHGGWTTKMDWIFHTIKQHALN
PI3-K alpha, sequence (P27986 whole entry partner, species assumed): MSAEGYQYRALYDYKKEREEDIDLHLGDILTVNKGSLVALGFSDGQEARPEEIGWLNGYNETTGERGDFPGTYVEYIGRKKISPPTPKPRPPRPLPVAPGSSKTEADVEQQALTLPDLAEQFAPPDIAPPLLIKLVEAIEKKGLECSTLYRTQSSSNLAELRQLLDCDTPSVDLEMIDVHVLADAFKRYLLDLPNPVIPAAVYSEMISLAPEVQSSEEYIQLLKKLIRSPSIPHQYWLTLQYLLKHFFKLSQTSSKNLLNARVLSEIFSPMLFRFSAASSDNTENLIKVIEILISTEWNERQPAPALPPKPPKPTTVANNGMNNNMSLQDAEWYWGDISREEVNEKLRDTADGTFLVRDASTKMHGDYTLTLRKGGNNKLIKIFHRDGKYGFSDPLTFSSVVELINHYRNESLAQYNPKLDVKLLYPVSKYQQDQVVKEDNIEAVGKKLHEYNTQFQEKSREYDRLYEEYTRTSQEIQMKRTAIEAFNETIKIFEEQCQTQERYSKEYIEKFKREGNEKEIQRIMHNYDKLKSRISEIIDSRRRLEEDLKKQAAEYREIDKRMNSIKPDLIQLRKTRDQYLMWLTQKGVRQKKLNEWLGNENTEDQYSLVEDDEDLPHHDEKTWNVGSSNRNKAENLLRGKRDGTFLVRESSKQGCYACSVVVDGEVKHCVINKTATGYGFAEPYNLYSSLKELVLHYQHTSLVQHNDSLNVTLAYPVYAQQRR

Turning to `O=C(/C=C/c1ccc2c(c1)OCO2)/C=C1/C(=O)Nc2ccccc21` [Compound 1], the “histone H3 phosphorylation on Ser10 in cancer cells” value in assay [1] is reported as “suppressed”. Also, the “induction of polyploidy cells” value in assay [2] is reported as “caused the induction of polyploidy cells”. The “apoptosis (Annexin V/PI staining)” value in [3] is 48%; in [4], 82%. For the same compound, the remaining activity at 5 µM in assay [5] was 90%; in [6] it was 109%; in assay [7] (Aurora A, read-out: kinase activity compared with the control), 76%; in assay [8] it was 75%; in assay [9], 104%; in [10], 85%. In addition, the remaining activity at 5 µM in assay [11] is 94%; in [12] it was 105%; in assay [13], 68%; in assay [14], 87%; in assay [15] it was 129%; in assay [16], 98%. Further, the remaining activity at 5 µM in [17] is 96%; in [18] it was 102%; in [19], 105%; in [20], 86%; in assay [21], 72%. Also, the “kinase activity of Aurora A decreased (kinase profile)” value in [7] (5 μM) is reported as “less than 25%”.
